Assay results taken from patent publication US9326513B2, “Fungicidal compositions” (Syngenta Participations AG, priority 2011, dated 2016).

Columns and labels:
Type in all cases: in vivo
Conditions in all cases: foliar, compared to untreated control leaf disks, read-out: disease control
[1] = system: Puccinia recondita f. sp. tritici; test: Puccinia recondita f. sp. tritici / wheat / leaf disc curative (brown rust)
Method: Puccinia recondita f. sp. tritici/Wheat/Leaf Disc Curative (Brown Rust) Wheat leaf segments cv. Kanzler are placed on agar in multiwell plates (24-well format). The leaf segments are inoculated with a spore suspension of the fungus. Plates were stored in darkness at 19° C. and 75% rh. The formulated test compound diluted in water was applied 1 day after inoculation.

[2] = system: Puccinia recondita f. sp. tritici; test: Puccinia recondita f. sp. tritici / wheat / leaf disc preventative (brown rust)
From the text: Puccinia recondita f. sp. tritici/Wheat/Leaf Disc Preventative (Brown Rust) Wheat leaf segments cv. Kanzler were placed on agar in multiwell plates (24-well format) and sprayed with the formulated test compound diluted in water. The leaf disks were inoculated with a spore suspension of the fungus 1 day after application.

Pyrenophora teres = Pyrenophora teres / barley / leaf disc preventative (net blotch)
From the text: Pyrenophora teres/Barley/Leaf Disc Preventative (Net Blotch) Barley leaf segments cv. Hasso were placed on agar in a multiwell plate (24-well format) and sprayed with the formulated test compound diluted in water. The leaf segments were inoculated with a spore suspension of the fungus 2 days after application.

[3] = system: Blumeria graminis f. sp. tritici (Erysiphe graminis f. sp. tritici); test: Blumeria graminis f. sp. tritici / wheat / leaf disc preventative (powdery mildew on wheat)
Method: Blumeria graminis f. sp. tritici (Erysiphe graminis f. sp. tritici)/Wheat/Leaf Disc Preventative (Powdery Mildew on Wheat)
Wheat leaf segments cv. Kanzler were placed on agar in a multiwell plate (24-well format) and sprayed with the formulated test compound diluted in water. The leaf disks were inoculated by shaking powdery mildew infected plants above the test plates 1 day after application. The inoculated leaf disks were incubated at 20° C. and 60% rh under a light regime of 24 h darkness followed by 12 h light/12 h darkness in a climate chamber and the activity of a compound was assessed as percent disease control compared to untreated when an appropriate level of disease damage appears on untreated check leaf segments (6-8 days after application).
The following compounds gave at 200 ppm give at least 50% disease control in this test when compared to untreated control leaf disks under the same conditions, which show extensive disease development: […]

SMILES	pest or weed control at 200 ppm [1] [%]	pest or weed control at 200 ppm [2] [%]	pest or weed control at 200 ppm (Pyrenophora teres) [%]	pest or weed control at 200 ppm [3] [%]
CCN(C)/C=N/c1cc(Br)c(OCc2cccc(C(C)C)c2)nc1C [Q.169]	≥ 50	≥ 50	≥ 50	
CCN(C)/C=N/c1cc(Br)c(OCCCC=C(C)C)nc1C [Q.079]			≥ 50	
CCN(C)/C=N/c1cc(Br)c(OC2CCc3ccc(Br)cc3C2)nc1C (stereo not shown) [Q.067]			≥ 50	
CCc1cc(/N=C/N(C)CC)c(C)nc1O[C@H]1CC[C@H](C(C)C)CC1 [Q.252]		≥ 50	≥ 50	
CCN(C)/C=N/c1cc(Br)c(OC(C)c2cc(F)cc(F)c2)nc1C (stereo not shown) [Q.256]			≥ 50	
CC#Cc1cc(/N=C/N(C)CC)c(C)nc1OC(C)c1cc(F)cc(F)c1 (stereo not shown) [Q.230]	≥ 50	≥ 50		≥ 50
CCCN/C=N/c1cc(Br)c(OCCCC(C)C)nc1C [Q.010]	≥ 50	≥ 50		≥ 50
CCN(C)/C=N/c1cc(Br)c(O[C@H]2CC[C@H](c3ccccc3)CC2)nc1C [Q.270]	≥ 50	≥ 50		≥ 50
CCN(C)/C=N/c1cc(Br)c(OCC[Si](C)(C)C)nc1C [Q.271]	≥ 50	≥ 50		≥ 50
C=Cc1ccccc1C(C)Oc1nc(C)c(/N=C/N(C)CC)cc1Br (stereo not shown) [Q.276]	≥ 50	≥ 50		≥ 50
CCN(C)/C=N/c1cc(Br)c(OC(C)c2ccccc2C)nc1C (stereo not shown) [Q.321]	≥ 50	≥ 50		≥ 50
CCN(C)/C=N/c1cc(Br)c(OC2C(C)CCCC2C)nc1C (stereo not shown) [Q.094]	≥ 50	≥ 50		≥ 50
CCN(C)/C=N/c1cc(Br)c(OCC(F)F)nc1C [Q.383]	≥ 50	≥ 50		≥ 50
CCN(C)/C=N/c1ccc(OC(C)c2cc(OC)cc(OC)c2)nc1C (stereo not shown) [Q.373]	≥ 50	≥ 50		≥ 50
CCN(C)/C=N/c1cc(Br)c(OCCCC=C(C)C)nc1C [Q.118]	≥ 50	≥ 50		≥ 50
CCN(C)/C=N/c1cc(Br)c(OC(C)(C)c2cc(-c3ccccc3)no2)nc1C [Q.077]	≥ 50	≥ 50		≥ 50
CCN(C)/C=N/c1ccc(OCc2cc(C)cc(C)c2)nc1C [Q.296]	≥ 50	≥ 50		≥ 50
CCN(C)/C=N/c1cc(Br)c(OCC(C)F)nc1C (stereo not shown) [Q.384]	≥ 50	≥ 50		≥ 50
CCN(C)/C=N/c1ccc(O[C@H]2CC[C@@H](CC)CC2)nc1C [Q.381]	≥ 50	≥ 50		≥ 50
CCN(C)/C=N/c1cc(Br)c(OC2CCCC(C)C2)nc1C (stereo not shown) [Q.149]	≥ 50	≥ 50		≥ 50
CCN(C)/C=N/c1cc(Br)c(OC2CCC3(CC2)NC(=O)NC3=O)nc1C (stereo not shown) [Q.072]	≥ 50	≥ 50		≥ 50
CCN(C)/C=N/c1cc(Br)c(OC2CCC(C(C)(C)C)CC2)nc1C (stereo not shown) [Q.081]	≥ 50	≥ 50		≥ 50
CCN(C)/C=N/c1cc(Br)c(OC(C)c2ccccc2C(C)C)nc1C (stereo not shown) [Q.307]	≥ 50	≥ 50		≥ 50
CCN(C)/C=N/c1cc(Br)c(OC2CCCc3ccc(Br)cc32)nc1C (stereo not shown) [Q.126]	≥ 50	≥ 50		≥ 50
C#CC(C)Oc1nc(C)c(/N=C/N(C)CC)cc1Br (stereo not shown) [Q.080]	≥ 50	≥ 50		≥ 50

SMILES	pest or weed control at 200 ppm [1] [%]	pest or weed control at 200 ppm [2] [%]	pest or weed control at 200 ppm (Pyrenophora teres) [%]	pest or weed control at 200 ppm [3] [%]
C/C=C/CCCCOc1nc(C)c(/N=C/N(C)CC)cc1Br [Q.132]	≥ 50	≥ 50		≥ 50
CCN(C)/C=N/c1cc(Br)c(OCCCC(CCl)OC=O)nc1C (stereo not shown) [Q.060]	≥ 50	≥ 50		≥ 50
CCN(C)/C=N/c1cc(Br)c(OC(C)c2ccc(C)cc2)nc1C (stereo not shown) [Q.112]	≥ 50	≥ 50		≥ 50
COc1cc(OC)cc(C(C)Oc2ccc(/N=C/N(C)C(C)C)c(C)n2)c1 (stereo not shown) [Q.374]	≥ 50	≥ 50		≥ 50
CCN(C)/C=N/c1cc(Br)c(OC2CCC(=O)CC2C)nc1C (single isomer, unassigned) [Q.332]	≥ 50	≥ 50		≥ 50
CCN(C)/C=N/c1cc(Br)c(OCc2ccc(Cl)c(Cl)c2)nc1C [Q.064]	≥ 50	≥ 50		≥ 50
C=CCC(C)Oc1nc(C)c(/N=C/N(C)CC)cc1Br (stereo not shown) [Q.145]	≥ 50	≥ 50		≥ 50
CCOc1nc(C)c(/N=C/N(C)CC)cc1Br [Q.085]	≥ 50	≥ 50		≥ 50
C#CCOc1nc(C)c(/N=C/N(C)CC)cc1Br [Q.078]	≥ 50	≥ 50		≥ 50
CCN(C)/C=N/c1cc(Br)c(OCCCC(O)COC)nc1C (stereo not shown) [Q.036]	≥ 50	≥ 50		≥ 50
CCN(C)/C=N/c1cc(Br)c(OCC2CC=CC2)nc1C [Q.098]	≥ 50	≥ 50		≥ 50
CCN(C)/C=N/c1cc(-c2ccccc2)c(OC(C)c2cc(F)cc(F)c2)nc1C (stereo not shown) [Q.263]	≥ 50	≥ 50		≥ 50
CCN(C)/C=N/c1cc(Br)c(OCc2ccc3c(c2)CCCC3)nc1C [Q.319]	≥ 50	≥ 50		≥ 50
CCN(C)/C=N/c1cc(Br)c(OCc2ccccc2C#Cc2ccccc2)nc1C [Q.310]	≥ 50	≥ 50		≥ 50
CCCc1ccccc1C(C)Oc1nc(C)c(/N=C/N(C)CC)cc1Br (stereo not shown) [Q.287]	≥ 50	≥ 50		≥ 50
CCN(C)/C=N/c1cc(Br)c(OCc2cc(-c3ccccc3)no2)nc1C [Q.073]	≥ 50	≥ 50		≥ 50
CCN(C)/C=N/c1ccc(OCCc2ccccc2C)nc1C [Q.350]	≥ 50	≥ 50		≥ 50
CCN(C)/C=N/c1cc(Br)c(OCc2ccccc2C(C)C)nc1C [Q.306]	≥ 50	≥ 50		≥ 50
CCN(C)/C=N/c1cc(Br)c(OCCCCc2ccc(Cl)cc2)nc1C [Q.045]	≥ 50	≥ 50		≥ 50
CCN(C)/C=N/c1cc(Br)c(OCc2ccc(F)c(C)c2)nc1C [Q.323]	≥ 50	≥ 50		≥ 50
CCN(C)/C=N/c1cc(-c2ccsc2)c(OC(C)c2cc(F)cc(F)c2)nc1C (stereo not shown) [Q.265]	≥ 50	≥ 50		≥ 50
CCN(C)/C=N/c1cc(Br)c(OC(C)c2cc(Cl)cc(Cl)c2)nc1C (stereo not shown) [Q.205]	≥ 50	≥ 50		≥ 50
CCN(C)/C=N/c1cc(Br)c(OC2CCCCCC2)nc1C [Q.171]	≥ 50	≥ 50		≥ 50
CCN(C)/C=N/c1cc(Br)c(OC(C)c2cccs2)nc1C (stereo not shown) [Q.237]		≥ 50	≥ 50	
CCN(C)/C=N/c1cc(Br)c(OCc2ccccc2CCc2ccccc2)nc1C [Q.309]	≥ 50	≥ 50		≥ 50
